According to US11773146B2, “Disruption of the WAVE3 protein complex for suppression of invasion and metastasis” (UNIVERSITY OF GEORGIA RESEARCH FOUNDATION, INC., priority 2015, dated 2023):
“Also recorded” adds a separate entry of the source. Bridges are numbered along the chain shown (N, C = ends). Where no end group is shown, it is not given here. [ ]: non-standard residue; d: D form. S5 = C=CCCC[C@](C)(N)C(=O)O

Columns and labels:
WASF3 [1] = test: IP analysis of WASF3 phosphorylation; format: cell-based; conditions: for WASF3 phosphorylation levels: MDA-MB-231 cells, same effect in PC3; for suppression of WASF3 phosphorylation compared with 17-AAG: comparison with HSP90 inhibitor 17-AAG
Description: (§1) Immunoprecipitation assays were carried out as described previously (Sossey-Alaoui, K., et al. J. Biol. Chem. 82:26257-26265 (2007)). Specially, to determine the physical interaction with individual peptides, MDA-MB-231 cells were pretreated with 10 μM biotin-labeled peptides for 24 hours and lysates were incubated with immobilized avidin resin overnight at 4° C. The pull down samples were subjected to SDS-PAGE followed by Western blot analysis.

[2] = tested on: MDA-MB-231 and Hs578T cells; test: Transwell invasion assay with RAC1 inhibitor; format: cell-based; conditions: dose-dependent treatment
Excerpt: (§2) MDA-MB-231, Hs578T and T47D breast cancer cell lines were obtained directly from American Type Culture Collection (Rockville, Md.). MDA-MB-231 and T47D and have been verified using SNP-CGH (Teng Y, et al. Int J Cancer 2011 129:2825-2835) for characteristic cytogenetic changes. The ATCC Cell Authentication Testing service confirmed the identity of Hs578T using STR DNA fingerprinting analysis. Standard cell culture, transient transfections, RT-PCR, western blotting, immunoprecipitation (IP), flow cytometry, Biotin-Avidin pulldown, lentiviral transduction, cell proliferation and Transwell invasion assays were carried out as described previously (Teng Y, et al. Int J Cancer 2011 129:2825-2835; Teng Y, et al. J Biol Chem 2012 287:10051-10059; Teng Y, et al. Carcinogenesis 2013 34:1994-1999).

WASF3, NCKAP1 or RAC1 = test: Western blot of protein levels with RAC1 inhibitor; format: cell-based; conditions: MDA-MB-231 and Hs578T cells
Excerpt: as §2

[3] = tested on: MDA-MB-231 cells overexpressing NCKAP1; test: Transwell invasion assay in cells overexpressing NCKAP1; format: cell-based; conditions: parental cells with empty vector and cells overexpressing NCKAP1
Excerpt: as §2
Lentiviral pCDH-CMV-MCS-EF1-PURO-HA-WASF3 (pCDH-HA-WASF3) was generated as described previously (Teng Y, et al. Carcinogenesis 2013 34:1994-1999). To construct the HA-NCKAP1 overexpression vector, the full-length human NCKAP1 was amplified from the template NCKAP1 cDNA clone (OriGene, Rockville, Md.) and was inserted into pCDHCMV-MCS-EF1-GFP lentiviral vector (System Biosciences, Mountain View, Calif.) as described previously (Teng Y, et al. Oncogene 2014 33:203-211). […]

MDA-MB-231 cells = test: Transwell invasion assay (WANT peptides); format: cell-based; conditions: for invasion potential: final concentration of 10 μM
Excerpt: There are currently no small molecules that target WASF3 function directly, but targeting the WRC may provide a means of suppressing invasion.

MDA-MB-231 and PC3 cells [4] = test: Transwell invasion analysis (WAHM peptides); format: cell-based; conditions: breast and prostate cells
Description: (§3) Hs578T, MDA-MB-231, DU145 and PC3 cells were purchased from the American Type Culture Collection (ATCC) and maintained according to the supplier's instructions. Lentiviral transduction, cell proliferation assays, wound healing assays, Matrigel invasion assays, Western blotting, flow cytometry and confocal image analysis were carried out as described previously (Teng, Y., et al. Br. J. Cancer 103:1066-1075 (2010); Teng, Y., et al. Int. J. Cancer 129:2825-2835 (2011); Teng, Y., et al. Oncogene 33:203-211 (2014); Teng, Y., et al. J. Biol. Chem. 287:10051-10059 (2012); Teng, Y., et al. Carcinogenesis […] (2013); Teng, Y. et al. Oncogene Mar 30 (2015)).

CYFIP1 = target: T1, CYFIP1 (Homo sapiens, UniProt Q7L576); test: Avidin-biotin pull down with biotinylated stapled peptides; format: binding; conditions: biotinylated peptide 10 μM, MDA-MB-231 cells
T1 construct: endogenous in cells; host or cells: MDA-MB-231
Description: as §1
To determine whether the SPs formed a complex with WASF3 within the cells, MDA-MB-231 cells were exposed to biotinylated WAHM1 and WAHM2 for 6 hours, after which the cells were lysed and pull down assays were performed using avidin-coated beads.

MDA-MB-231 and PC3 cells [5] = test: MTS cell proliferation assay; format: cell-based; conditions: 10 μM over 24 hours
Description: as §3

WASF3 [6] = test: Western blot of WASF3 protein levels after WAHM treatment; format: cell-based; conditions: for WASF3 levels in serum-starved cells: MDA-MB-231 and PC3 cells starved overnight, then treated for 4 hours; for intracellular levels of either WASF3 or CYFIP1: MDA-MB-231 cells; for WASF3 protein levels: MDA-MB-231 cells in serum, 2 to 24 hours
Description: as §3

WASF3-CYFIP1 complex = target: T2, WASF3-CYFIP1 complex (Homo sapiens, UniProt Q7L576); test: IP of WASF3: presence of CYFIP1 in the immunocomplex; format: cell-based; conditions: MDA-MB-231 cells treated with the SPs
T2 construct: endogenous in cells; host or cells: MDA-MB-231
Description: as §1

MDA-MB-231 and PC3 cells [7] = test: Phalloidin staining and quantitation of filamentous actin; format: cell-based; conditions: 24 hours; for actin stress fibers (phalloidin staining): 10 μM; for fluorescence intensity of phalloidin stained cells: versus DMSO or scrambled peptides
Description: MDA-MB-231 and PC3 cells were seeded (10,000 cells per well) on slides with the Nunc™ Lab-Tek™ II Chamber Slide™ System (Thermo Fisher Scientific) in complete medium overnight and incubated with 10 μM WAHM or scrambled peptides for 24 hours. Cells were then fixed with 3.7% formaldehyde for 15 min and permeabilized with 0.1% Triton X-100 for 10 min and incubated with Texas-red phalloidin (Life technologies) for an additional 30 min to stain actin filaments. Cells were imaged using a Zeiss LSM 410 confocal microscope equipped with ×63 (1.4 numerical aperture) oil objective (Carl Zeiss) as previously described8. To quantitate the filamentous actin, cells were seeded at 2000 cells per well in a 96 well plate and treated with […] or scrambled peptides for 24 hours. Cells were then stained with phalloidin as described above, followed by extensive washings. Phallodin was solubilized with methanol and the supernatant was transferred to a clear-bottom black plate, and the fluorescence was determined using Infinite® M1000 PRO (Tecan). A parallel set of cells was used to determine cell number using the CellTiter-Glo® Luminescent Cell Viability kit from Promega (Madison), according to the manufacturer's parameters. Data from three independent experiments were expressed as mean relative fluorescence units per cell SEM.

MDA-MB-231 and PC3 cells [8] = test: Scratch wound assay; format: cell-based; conditions: breast and prostate cell lines, versus DMSO and scrambled peptide
Description: as §3

MMP-9 = MMP-9 secretion in culture supernatant by ELISA; format: cell-based, Human; conditions: MDA-MB-231 and PC3 cells, 24 hours, compared with scrambled controls
Description: After incubation with WAHM or scrambled peptides for 24 hours, MDA-MB-231 and PC3 cell supernatants were recovered and centrifuged at 1000 g at 4° C. for 20 min. MMP-9 levels in supernatants were measured using the Human MMP-9 Quantikine® ELISA kit (R&D Systems) and microplate reader at 450 nm.

KISS1 = test: Western blot of KISS1 levels; format: cell-based; conditions: MDA-MB-231 cells, compared with scrambled peptides
Description: as §3

T1 sequence (Q7L576 whole entry): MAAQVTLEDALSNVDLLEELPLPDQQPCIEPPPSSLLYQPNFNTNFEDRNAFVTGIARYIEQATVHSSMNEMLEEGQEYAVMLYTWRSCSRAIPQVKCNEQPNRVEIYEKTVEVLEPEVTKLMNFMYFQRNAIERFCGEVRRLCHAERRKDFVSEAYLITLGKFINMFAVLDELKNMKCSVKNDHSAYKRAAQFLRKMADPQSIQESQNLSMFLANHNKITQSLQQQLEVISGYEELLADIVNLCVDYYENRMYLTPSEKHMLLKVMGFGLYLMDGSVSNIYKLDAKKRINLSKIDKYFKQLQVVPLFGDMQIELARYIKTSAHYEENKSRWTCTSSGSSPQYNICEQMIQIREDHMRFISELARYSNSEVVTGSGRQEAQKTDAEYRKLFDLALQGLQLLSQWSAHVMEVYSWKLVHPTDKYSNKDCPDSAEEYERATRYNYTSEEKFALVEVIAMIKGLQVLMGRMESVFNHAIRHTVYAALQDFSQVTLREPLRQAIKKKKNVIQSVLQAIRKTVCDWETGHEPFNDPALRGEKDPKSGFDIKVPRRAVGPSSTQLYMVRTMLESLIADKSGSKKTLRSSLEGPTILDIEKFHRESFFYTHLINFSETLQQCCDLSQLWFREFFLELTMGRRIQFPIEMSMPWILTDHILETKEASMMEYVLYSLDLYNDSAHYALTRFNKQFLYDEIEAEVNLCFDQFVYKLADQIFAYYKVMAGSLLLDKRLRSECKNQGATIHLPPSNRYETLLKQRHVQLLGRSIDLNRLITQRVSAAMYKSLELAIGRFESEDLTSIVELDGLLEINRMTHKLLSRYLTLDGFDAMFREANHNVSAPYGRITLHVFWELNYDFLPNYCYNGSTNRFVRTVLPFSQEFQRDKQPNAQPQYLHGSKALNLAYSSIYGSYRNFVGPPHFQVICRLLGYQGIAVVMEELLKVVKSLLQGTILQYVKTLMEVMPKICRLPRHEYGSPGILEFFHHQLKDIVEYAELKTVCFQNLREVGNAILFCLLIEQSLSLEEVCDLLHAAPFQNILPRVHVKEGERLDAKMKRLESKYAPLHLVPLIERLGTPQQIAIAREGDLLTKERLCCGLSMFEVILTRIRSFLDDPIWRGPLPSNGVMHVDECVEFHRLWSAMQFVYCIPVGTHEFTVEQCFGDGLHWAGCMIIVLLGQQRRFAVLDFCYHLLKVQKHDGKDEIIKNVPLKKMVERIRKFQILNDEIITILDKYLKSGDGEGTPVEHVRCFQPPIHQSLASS
T2 sequence (Q7L576 whole entry): as above
T2 sequence (Q9Y2A7 2-1128 partner limits assumed): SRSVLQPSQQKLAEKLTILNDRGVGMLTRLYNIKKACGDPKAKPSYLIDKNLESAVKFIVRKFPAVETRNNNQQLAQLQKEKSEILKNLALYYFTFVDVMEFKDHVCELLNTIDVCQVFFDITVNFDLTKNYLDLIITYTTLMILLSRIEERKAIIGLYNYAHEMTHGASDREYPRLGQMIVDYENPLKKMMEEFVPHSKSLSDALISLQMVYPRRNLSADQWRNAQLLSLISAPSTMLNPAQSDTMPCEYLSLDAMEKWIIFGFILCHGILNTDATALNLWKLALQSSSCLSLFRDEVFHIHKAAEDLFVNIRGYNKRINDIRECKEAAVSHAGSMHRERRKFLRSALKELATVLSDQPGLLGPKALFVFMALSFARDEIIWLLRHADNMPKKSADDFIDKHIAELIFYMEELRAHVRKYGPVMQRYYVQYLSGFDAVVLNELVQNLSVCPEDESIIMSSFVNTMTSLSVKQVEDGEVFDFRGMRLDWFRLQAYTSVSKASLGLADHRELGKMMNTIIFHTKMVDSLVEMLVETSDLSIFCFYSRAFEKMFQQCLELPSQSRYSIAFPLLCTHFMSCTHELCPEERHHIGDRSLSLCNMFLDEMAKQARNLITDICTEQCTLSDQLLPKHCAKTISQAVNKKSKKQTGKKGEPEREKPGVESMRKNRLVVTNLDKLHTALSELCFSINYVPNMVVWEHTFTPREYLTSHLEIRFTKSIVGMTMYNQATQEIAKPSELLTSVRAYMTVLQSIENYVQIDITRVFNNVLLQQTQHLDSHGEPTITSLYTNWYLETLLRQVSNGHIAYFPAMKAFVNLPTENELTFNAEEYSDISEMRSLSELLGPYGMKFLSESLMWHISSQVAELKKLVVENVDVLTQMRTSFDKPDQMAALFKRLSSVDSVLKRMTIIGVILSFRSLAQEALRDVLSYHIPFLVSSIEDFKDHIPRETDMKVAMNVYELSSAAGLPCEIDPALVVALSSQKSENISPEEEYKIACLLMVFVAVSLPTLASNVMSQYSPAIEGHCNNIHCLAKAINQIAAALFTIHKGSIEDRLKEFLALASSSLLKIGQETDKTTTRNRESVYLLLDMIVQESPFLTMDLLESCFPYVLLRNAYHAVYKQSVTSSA

Molecule | WASF3 phosphorylation levels (WASF3 [1]) | invasion potential (MDA-MB-231 cells) | effect on invasion (in words) (MDA-MB-231 and PC3 cells [4]) | CYFIP1 in the pull down complex (CYFIP1) | cell proliferation (MTS) (MDA-MB-231 and PC3 cells [5]) | WASF3 levels in serum-starved cells (WASF3 [6]) | intracellular levels of either WASF3 or CYFIP1 (WASF3 [6]) | WASF3 protein levels (WASF3 [6]) | CYFIP1 in WASF3 immunocomplex (WASF3-CYFIP1 complex) | actin stress fibers (phalloidin staining) (MDA-MB-231 and PC3 cells [7]) | fluorescence intensity of phalloidin stained cells (MDA-MB-231 and PC3 cells [7]) | migration potential / cell motility (MDA-MB-231 and PC3 cells [8]) | secreted MMP9 levels (MMP-9) | KISS1 protein levels (KISS1) | suppression of WASF3 phosphorylation compared with 17-AAG (WASF3 [1]) | other results
C=CCNC1=C2C[C@@H](C)C[C@H](OC)[C@H](O)[C@@H](C)/C=C(\C)[C@H](OC(N)=O)[C@@H](OC)/C=C\C=C(/C)C(=O)NC(=CC1=O)C2=O [17-AAG, reference compound] | reduced WASF3 phosphoactivation | – | – | – | – | – | – | – | – | – | – | – | – | – | – | –
CCN(CC)CCCC(C)Nc1nc(C)cc(Nc2ccc3nc(C)cc(N)c3c2)n1 (stereo not drawn) [NSC23766] | – | – | – | – | – | – | – | – | – | – | – | – | – | – | – | invasion [2]: dose-dependent reduction in invasion potential; protein levels of either WASF3, NCKAP1 or RAC1 (WASF3, NCKAP1 or RAC1): without affecting; also recorded: does not affect protein levels; invasion potential in cells expressing NCKAP1 [3]: significant reduction in invasion; invasion potential in cells expressing NCKAP1 ([3]; listed as NSC23677): significant reduction of invasion potential
ELXSSIXDFKDHK (EL[S5]SSI[S5]DFKDHK-NH2; staple 3-7) [WANT2, WASF3-NCKAP1 Target stapled peptide; X is (S)-2-(4′-pentenyl)alanine] | – | no significant effect on invasion potential | – | – | – | – | – | – | – | – | – | – | – | – | – | –
KHCAXTISXAVNK (KHCA[S5]TIS[S5]AVNK-NH2; staple 5-9) [WANT1, WASF3-NCKAP1 Target stapled peptide; X is (S)-2-(4′-pentenyl)alanine] | – | no significant effect on invasion potential | – | – | – | – | – | – | – | – | – | – | – | – | – | –
LEK*TNS*LAKIIRQL (LEK[S5]TNS[S5]LAKIIRQL-NH2; staple 4-8; not fully specified (N-terminus)) [WAHM1, WASF Helix Mimic stapled peptide; * is (S)-2-(4′-pentenyl)alanine that forms the staple] | dramatic decrease in WASF3 phosphorylation levels; also recorded: reduction in WASF3 phosphorylation | – | significantly suppresses invasion | CYFIP1 was present in the pull down complex; also recorded: CYFIP1 was shown to interact | no significant difference in cell proliferation | reduced below detectable levels | did not affect | WASF3 protein levels were not affected; also recorded: without a reduction in WASF3 protein levels; also recorded: no reduction in WASF3 protein levels | CYFIP1 was not present in the immunocomplex | increase in both the number and thickness of the actin stress fibers | increased intensity | reduced migration potential; also recorded: significant reduction in cell motility | remarkable reduction in secreted MMP9 levels; also recorded: significantly reduced MMP9 levels | increased KISS1 levels; also recorded: KISS1 levels increase | more efficient | suppression of invasion, WAHM1 compared with WANT3 (MDA-MB-231 cells): comparable suppression of invasion
LEKKTN*TLA*IIRQL (LEKKTN[S5]TLA[S5]IIRQL-NH2; staple 7-11; not fully specified (N-terminus)) [WAHM2, WASF Helix Mimic stapled peptide; * is (S)-2-(4′-pentenyl)alanine that forms the staple] | dramatic decrease in WASF3 phosphorylation levels; also recorded: reduction in WASF3 phosphorylation | – | significantly suppresses invasion | CYFIP1 was present in the pull down complex; also recorded: CYFIP1 was shown to interact | no significant difference in cell proliferation | reduced below detectable levels | did not affect | WASF3 protein levels were not affected; also recorded: without a reduction in WASF3 protein levels; also recorded: no reduction in WASF3 protein levels | CYFIP1 was not present in the immunocomplex | increase in both the number and thickness of the actin stress fibers | increased intensity | reduced migration potential; also recorded: significant reduction in cell motility | remarkable reduction in secreted MMP9 levels; also recorded: significantly reduced MMP9 levels | increased KISS1 levels; also recorded: KISS1 levels increase | more efficient | –
